According to patent US20240391937A1, “BICYCLIC DERIVATIVE PARP INHIBITOR AND USE THEREOF” (XIZANG HAISCO PHARMACEUTICAL CO., LTD., priority 2021, published 2024):
Where two headings read alike, the source gives them in different places.

Experiments:
PARP-1 enzyme = target: T1, PARP-1 enzyme (Homo sapiens, UniProt P09874); experiment: PARP-1 enzyme activity test (BPS Bioscience chemiluminescence kit); type: biochemical
T1 construct: purchased BPS Bioscience
Procedure: PARP-1 chemical […] detection kit was purchased from BPS Bioscience. The histone solution in the kit was diluted 5× with 1×PBS, and 25 μL of the diluted histone solution was added to a microwell plate and incubated overnight at 4° C. After the incubation, the plate was washed three times with PBST (0.05% Tween-20). 100 μL of the blocking solution was added to the microwell plate and incubated at 25° C. for 90 minutes. After the incubation, the plate was washed three times with PBST. 2.5 μL of compounds at different concentrations diluted in test buffer and 12.5 μL of substrate mixed solution (1.25 μL 10× PARP test buffer; 1.25 μL 10× PARP test mixed solution; 2.5 μL Activated DNA, 7.5 μL double-distilled water) were added to the microwell plate. The PARP-1 enzyme was diluted to 2 ng/μL, 10 μL of the diluent was added to the microwell plate, and the reaction system was incubated at 25° C. for 60 minutes.
After the incubation, the plate was washed three times with PBST. Streptavidin-HRP was diluted 50× with a blocking solution, and 25 μL of the diluent was added to the microwell plate and incubated at 25° C. for 30 minutes. After the incubation, the plate was washed three times with PBST. ELISA ECL substrate A and substrate B were mixed at a ratio of 1:1 (v/v), 50 μL of the mixture was added to the microwell plate, and the chemiluminescence value was read.
The inhibition rate was calculated according to formula 1, where RLUsample was the readout of the compound well, RLUmax was the readout of the solvent control well, and RLUmin was the readout of the control well without the PARP-1 enzyme. Curve fitting was performed by four parameters (log (inhibitor) vs. response—Variable slope) using GraphPad Prism software, and the IC50 value was calculated.

MDA-MB-436 cells = experiment: MDA-MB-436 cell activity test (CellTiter-Glo, 7 days); type: cell-based; conditions: Homo sapiens; for IC50: MDA-MB-436, 168 h, 7 days incubation; for inhibition at 10 µM: MDA-MB-436 cells, read-out: Max inh. % 10 μM
Procedure: Breast tumor cells MDA-MB-436 were purchased from ATCC, the culture medium was Leibovitz's L-15+10% FBS, and the cells were cultured in a CO2-free incubator at 37° C. On day 1, the cells in the exponential growth phase were collected, and the cell suspension was adjusted to 4000 cells/135 μL with the culture medium. 135 μL of the cell suspension was added to each well of a 96-well cell culture plate and incubated overnight. On day 2, compounds at different concentrations were added, and the plate was placed in the incubator and incubated for 7 days. After the incubation was completed, according to operation instructions for a CellTiter-Glo kit (Promega, G7573), 75 μL of CTG solution, which was already pre-melted and equilibrated to room temperature, was added to each well, and the mixture was uniformly mixed for 2 min using a microplate shaker. The plate was placed at room temperature for 10 min, and then […] were measured using an Envision2104 plate reader (PerkinElmer). The inhibition rate was calculated using formula (1), where RLUcompound was the readout of the drug treated group, RLUcontrol was the average value of the vehicle control group, and RLUblank was the average value of the cell-free well. The IC50 value was calculated using GraphPad Prism software.

[1] = Pharmacokinetic test in mice; type: in vivo, ICR mice
Procedure: • 3.1 Experimental animals: male ICR mice, 20-25 g, 18 mice/compound. purchased from Chengdu Ddossy Experimental Animals Co., Ltd. • 3.2 Experimental design: on the day of the test, 18 ICR mice were randomly grouped according to their body weights. the animals were fasted with water available for 12 to 14 h one day before the administration, and were fed 4 h after the administration. [table] Before and after the administration, 0.06 mL of blood was taken from the orbit of the animals under isoflurane anesthesia and placed in an EDTAK2 centrifuge tube. The blood was centrifuged at 5000 rpm and 4° C. for 10 min to collect plasma. The blood collection time points for the intravenous group and intragastric administration group were: 0 min, 5 min, 15 min, 30 min, 1 h, 2 h, 4 h, 6 h, 8 h, and 24 h. Before analysis and detection, all samples were stored at −80° C., and a quantitative analysis of samples was performed using LC-MS/MS.

[2] = Pharmacokinetic test in rats; type: in vivo, SD rats
Procedure: • 1.1 Experimental animals: male SD rats, about 220 g, 6-8 weeks old, 6 rats/compound, purchased from Chengdu Ddossy Experimental Animals Co., Ltd. • 1.2 Experimental design: on the day of the test, 6 SD rats were randomly grouped according to their body weight; the animals were fasted with water available for 12 to 14 h one day before the administration, and were fed 4 h after the administration.
Before and after the administration, 0.15 ml of blood was taken from the orbit of the animals under isoflurane anesthesia and placed in an EDTAK2 centrifuge tube. The blood was centrifuged at 5000 rpm and 4° C. for 10 min to collect plasma. The blood collection time points for the intravenous administration group and intragastric administration group were: 0, 5 min, 15 min, 30 min, 1 h, 2 h, 4 h, 6 h, 8 h, and 24 h. Before analysis and detection, all samples were stored at −80° C., and a quantitative analysis of samples was performed using LC-MS/MS.

[3] = grades, read-out: PARP-1 enzyme activity IC50
[4] = values in text, read-out: IC50 values on PARP-1
[5] = male, ICR, mouse, iv, mice, i.v. 2.5 mg/kg, plasma
[6] = male, SD, rat, iv, rats, i.v. 2.5 mg/kg, plasma

T1 sequence (P09874 whole entry): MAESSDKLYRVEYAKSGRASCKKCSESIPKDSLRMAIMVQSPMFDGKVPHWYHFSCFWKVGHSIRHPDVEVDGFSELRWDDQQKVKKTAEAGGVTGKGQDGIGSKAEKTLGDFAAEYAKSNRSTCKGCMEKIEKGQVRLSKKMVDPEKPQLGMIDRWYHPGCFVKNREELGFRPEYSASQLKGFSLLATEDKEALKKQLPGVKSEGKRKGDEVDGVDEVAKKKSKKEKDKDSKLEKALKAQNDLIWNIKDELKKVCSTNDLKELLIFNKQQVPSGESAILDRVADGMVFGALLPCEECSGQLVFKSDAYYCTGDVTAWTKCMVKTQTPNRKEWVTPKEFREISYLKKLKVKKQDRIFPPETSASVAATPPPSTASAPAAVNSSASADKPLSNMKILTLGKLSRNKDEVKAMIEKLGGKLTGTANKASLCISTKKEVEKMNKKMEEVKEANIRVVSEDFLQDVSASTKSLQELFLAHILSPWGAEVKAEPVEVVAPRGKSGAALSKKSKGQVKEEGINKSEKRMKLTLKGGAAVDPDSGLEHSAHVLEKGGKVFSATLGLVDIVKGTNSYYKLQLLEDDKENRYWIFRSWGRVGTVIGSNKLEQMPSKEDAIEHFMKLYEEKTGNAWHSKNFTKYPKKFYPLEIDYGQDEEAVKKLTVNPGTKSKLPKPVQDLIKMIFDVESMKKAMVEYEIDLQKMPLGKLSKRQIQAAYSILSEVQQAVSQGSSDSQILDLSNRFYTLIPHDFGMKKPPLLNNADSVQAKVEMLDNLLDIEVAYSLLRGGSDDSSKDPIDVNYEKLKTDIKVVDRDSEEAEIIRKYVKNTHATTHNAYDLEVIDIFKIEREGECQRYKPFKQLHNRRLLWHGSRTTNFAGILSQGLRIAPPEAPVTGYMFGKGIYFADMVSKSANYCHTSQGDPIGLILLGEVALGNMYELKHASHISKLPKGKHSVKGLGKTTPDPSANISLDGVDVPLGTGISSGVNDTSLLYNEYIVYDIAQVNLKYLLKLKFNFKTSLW

| SMILES | IC50 (PARP-1 enzyme; [3]) [nM] | IC50 (PARP-1 enzyme; [4]) [nM] | IC50 (MDA-MB-436 cells) [nM] | inhibition at 10 µM (MDA-MB-436 cells) [%] | pharmacokinetic characteristics in mice ([1]; conclusion in words) | AUC(0-t) [1, 5] [µg·h/mL] | clearance [1, 5] [L/h/kg] | Vd ([1]; male, ICR, mouse, iv, mice, i.v. 2.5 mg/kg, plasma, read-out: Vdss) [L/kg] | AUC(0-t) ([1]; male, ICR, mouse, po, mice, i.g. 10 mg/kg, plasma) [µg·h/mL] | F ([1]; mice, i.g. 10 mg/kg) [%] | pharmacokinetic characteristics in rats ([2]; conclusion in words) | AUC(0-t) [2, 6] [µg·h/mL] | clearance [2, 6] [L/h/kg] | Vd ([2]; male, SD, rat, iv, rats, i.v. 2.5 mg/kg, plasma, read-out: Vdss) [L/kg] | AUC(0-t) ([2]; male, SD, rat, po, rats, i.g. 10 mg/kg, plasma) [µg·h/mL] | F ([2]; rats, i.g. 10 mg/kg) [%] |
| --- | --- | --- | --- | --- | --- | --- | --- | --- | --- | --- | --- | --- | --- | --- | --- | --- |
| Cn1cc(NC(=O)c2ccc(N3CCN(Cc4cnc5cc(C6CC6)c(=O)[nH]c5c4)CC3)cn2)cn1 [Compound 6, 5-(4-((7-cyclopropyl-6-oxo-5,6-dihydro-1,5-naphthyridin-3-yl)methyl)piperazin-1-yl)-N-(1-methyl-1H-pyrazol-4-yl)picolinamide] | ≤ 1 | 0.54 | 2.8 | 85.4 | – | – | – | – | – | – | – | – | – | – | – | – |
| O=c1[nH]c2cc(CN3CCN(c4cn5cc(C(F)(F)F)nc5cn4)CC3)cnc2cc1C1CC1 [Compound 8, 3-cyclopropyl-7-((4-(2-(trifluoromethyl)imidazo[1,2-a]pyrazin-6-yl)piperazin-1-yl)methyl)-1,5-naphthyridin-2(1H)-one] | – | 1.2 | 1.1 | 97.4 | – | – | – | – | – | – | – | – | – | – | – | – |
| O=C(NC1CC1)c1ccc(C2=CCN(Cc3cnc4cc(C5CC5)c(=O)[nH]c4c3)CC2)cn1 [Compound 3, N-cyclopropyl-1′-((7-cyclopropyl-6-oxo-5,6-dihydro-1,5-naphthyridin-3-yl)methyl)-1′,2′,3′,6′-tetrahydro-[3,4′-bipyridine]-6-carboxamide] | ≤ 1 | 0.6 | 4.5 | 82.1 | good pharmacokinetic characteristics | 108 | 0.0208 | 0.207 | 707 | 164 | – | – | – | – | – | – |
| O=C(NC1CC1)c1ccc(N2CCN(Cc3cnc4cc(C5CC5)c(=O)[nH]c4c3)CC2)cn1 [Compound 5, N-cyclopropyl-5-(4-((7-cyclopropyl-6-oxo-5,6-dihydro-1,5-naphthyridin-3-yl)methyl)piperazin-1-yl)picolinamide] | ≤ 1 | 0.74 | 5.6 | 80.7 | – | – | – | – | – | – | – | – | – | – | – | – |
| CNC(=O)c1ccc(N2CCN(Cc3cnc4cc(C5CC5)c(=O)[nH]c4c3)CC2)cn1 [Compound 2, 5-(4-((7-cyclopropyl-6-oxo-5,6-dihydro-1,5-naphthyridin-3-yl)methyl)piperazin-1-yl)-N-methylpicolinamide] | ≤ 1 | 0.9 | 5.1 | 86.3 | – | – | – | – | – | – | good pharmacokinetic characteristics | 70.8 | 0.0351 | 0.169 | 206 | 72.6 |
